≈ marks a conversion by molar mass, not a printed value. Calls of active or inactive are those of the source. No cut-off for these calls is given here.
What was measured:
Candida albicans [1] = assay: Antifungal activity against FLC-resistant Candida albicans ATCC 14053 cultured in SD +10% FBS liquid medium assessed as inhibition of hyphal formation at 1 ug/ml measured after 2 hrs by inverted microscopy; format: functional, organism-based; conditions: dose 1.0 µg/ml
Candida albicans [2] = assay: Synergistic antifungal activity against clinical FLC-resistant Candida albicans 808 measured after 24 hrs by microdilution method; format: functional
[3] = Toxicity in Balb/c mouse infected with FLC-resistant Candida albicans ATCC 14053 assessed as weight loss at 15 mg/kg, ig measured daily for 6 days; format: organism-based; conditions: in vivo, po, 144 h, time 6 day
Candida albicans [4] = assay: Antifungal activity against clinical FLC-resistant Candida albicans 4508 measured after 24 hrs by microdilution method; format: functional
Candida albicans [5] = assay: Synergistic antifungal activity against clinical FLC-resistant Candida albicans 187 assessed as fractional inhibitory concentration index measured after 24 hrs in presence of fluconazole by microdilution method; format: functional
[6] = Toxicity in Balb/c mouse assessed as weight loss at 15 mg/kg, ig measured daily for 6 days; format: organism-based; conditions: in vivo, po, 144 h, time 6 day
Candida albicans [7] = assay: Antifungal activity against FLC-sensitive Candida albicans SC5314 measured after 24 hrs by microdilution method; format: functional
Candida albicans [8] = assay: Synergistic antifungal activity against FLC-sensitive Candida albicans SC5314 measured after 24 hrs in presence of fluconazole by microdilution method; format: functional
Candida albicans [9] = assay: Synergistic antifungal activity against FLC-resistant Candida albicans ATCC 10231 measured after 24 hrs by microdilution method; format: functional
Candida albicans [10] = assay: Antifungal activity against clinical FLC-resistant Candida albicans 799 measured after 24 hrs by microdilution method; format: functional
Candida albicans [11] = assay: Synergistic antifungal activity against FLC-resistant Candida albicans ATCC 14053 assessed as inhibition of rhodamine 6G efflux incubated for 4 hrs under shaking condition in presence of fluconazole by Rhodamine 6G staining based fluorescence assay; format: functional, organism-based
Candida albicans [12] = assay: Synergistic antifungal activity against clinical FLC-resistant Candida albicans 799 assessed as fractional inhibitory concentration index measured after 24 hrs by microdilution method; format: functional
Candida albicans [13] = assay: Synergistic antifungal activity against FLC-resistant Candida albicans ATCC 14053 cultured in spider medium assessed as inhibition of hyphal formation at 1 ug/ml measured after 2 hrs in presence of fluconazole by inverted microscopy; format: functional, organism-based; conditions: dose 1.0 µg/ml
Candida albicans [14] = assay: Antifungal activity against clinical FLC-resistant Candida albicans 187 measured after 24 hrs by microdilution method; format: functional
Candida albicans [15] = assay: In vivo antifungal activity against FLC-resistant Candida albicans ATCC 14053 infected in Balb/c mouse assessed as reduction in lung fungal load at 15 mg/kg, ig measured after 6 days; format: functional, organism-based; conditions: time 6.0 day
Candida albicans [16] = assay: In vivo antifungal activity against FLC-resistant Candida albicans ATCC 14053 infected in Balb/c mouse assessed as reduction in infiltration of inflammatory cells at 15 mg/kg, ig measured after 6 days by H and E staining based histopathological analysis; format: functional, organism-based; conditions: time 6.0 day
Candida albicans [17] = assay: Synergistic antifungal activity against FLC-resistant Candida albicans ATCC 14053 cultured in spider medium assessed as inhibition of hyphal formation at 1 ug/ml measured after 4 to 8 hrs in presence of fluconazole by inverted microscopy; format: functional, organism-based; conditions: dose 1.0 µg/ml, time 4-8 hrs
Candida albicans [18] = assay: Synergistic antifungal activity against FLC-resistant Candida albicans ATCC 14053 assessed as inhibition of hyphal formation by measuring down regulation of EFG1 gene expression at 1 ug/ml measured after 16 to 18 hrs in presence of fluconazole by qRT-PCR analysis; format: functional, organism-based; conditions: dose 1.0 µg/ml, time 16-18 hrs
Candida albicans [19] = assay: Synergistic antifungal activity against clinical FLC-resistant Candida albicans 602 measured after 24 hrs by microdilution method; format: functional
[20] = Toxicity in Balb/c mouse assessed as death at 15 mg/kg, ig measured daily for 6 days; format: organism-based; conditions: in vivo, po, 144 h, time 6 day
Candida albicans [21] = assay: Synergistic antifungal activity against clinical FLC-resistant Candida albicans 381 assessed as fractional inhibitory concentration index measured after 24 hrs by microdilution method; format: functional
Candida albicans [22] = assay: Synergistic antifungal activity against FLC-resistant Candida albicans ATCC 14053 assessed as inhibition of rhodamine 6G efflux measured within 30 mins in presence of fluconazole by Rhodamine 6G staining based fluorescence assay; format: functional, organism-based
Candida albicans [23] = assay: Synergistic antifungal activity against FLC-resistant Candida albicans ATCC 14053 cultured in SD +10% FBS liquid medium assessed as inhibition of hyphal formation at 1 ug/ml measured after 4 to 8 hrs in presence of fluconazole and dibutyryl-cAMP by inverted microscopy; format: functional, organism-based; conditions: dose 1.0 µg/ml, time 4-8 hrs

SMILES: CN1CCN(c2nc3ccccc3cc2/C=C/C(=O)c2ccc(N3CCN(Cc4ccc(C(F)(F)F)cc4)CC3)cc2)CC1
- inhibition (Candida albicans [1]): inactive
- MIC80 (Candida albicans [2]): 0.38 µg/mL
- Activity [3]: Toxic
- MIC80 (Candida albicans [4]): > 40 µg/mL
- fractional inhibitory concentration index (FICI) (Candida albicans [5]): 0.01
- Activity [6]: Non-Toxic
- MIC80 (Candida albicans [7]): 27.8 µg/mL (≈ 46.3 µM)
- MIC80 (Candida albicans [8]): 0.99 µg/mL
- MIC80 (Candida albicans [9]): 5.58 µg/mL
- MIC80 (Candida albicans [10]): > 40 µg/mL
- inhibition (Candida albicans [11]): Active
- fractional inhibitory concentration index (FICI) (Candida albicans [12]): 0.03
- inhibition (Candida albicans [13]): inactive
- MIC80 (Candida albicans [14]): > 40 µg/mL
- Activity (Candida albicans [15]): inactive
- Activity (Candida albicans [16]): inactive
- inhibition (Candida albicans [17]): Active
- inhibition (Candida albicans [18]): Active
- MIC80 (Candida albicans [19]): 5.67 µg/mL
- Activity [20]: Non-Toxic
- fractional inhibitory concentration index (FICI) (Candida albicans [21]): 0.03
- inhibition (Candida albicans [22]): inactive
- inhibition (Candida albicans [23]): inactive
